Assay [1] concerns the target Kappa-type opioid receptor (Cavia porcellus, UniProt P41144). Put plainly: Agonist activity at KOR in guinea pig vas deferens. The assay is classed as functional, tissue-based.
The target of assay [2] is Mu-type opioid receptor (Cavia porcellus, UniProt P97266). Nature of the assay: Agonist activity at MOR in guinea pig vas deferens. The assay is classed as functional, tissue-based.
Assay [3] concerns Rhesus monkey. Nature of the assay: Reduction in morphine dependence in withdrawn rhesus monkey model assessed as attenuation of withdrawal effects at 0.1 mg/kg. The assay is classed as functional, organism-based. The note with it: Macaca mulatta. On the set-up: dose 0.1 mg/kg.
For assay [4], the system named is Rhesus monkey. Put plainly: Reduction in morphine dependence in withdrawn rhesus monkey model assessed as attenuation of withdrawal effects at 0.5 mg/kg. The assay is classed as functional, organism-based. Also on record: dose 0.5 mg/kg. The settings on record: Macaca mulatta.
A short description of assay [5]: Agonist activity at DOR in guinea pig vas deferens. The assay is classed as functional, tissue-based. The settings on record: Cavia porcellus.
The nature of assay [6]: Displacement of [3H]Cl-DPDPE from DOR in guinea pig brain membrane. (Displacement assays read how much labelled ligand stays bound in the presence of the test substance.)
Assay [7] concerns Mus musculus. Put plainly: Antinociceptive activity in mouse assessed as tail withdrawal latency at 100 mg/kg by 55 degC warm water test. The assay is classed as functional.

Calls of active or inactive are those of the source. No cut-off for these calls is given here.

Mu-type opioid receptor, sequence (P97266 whole entry): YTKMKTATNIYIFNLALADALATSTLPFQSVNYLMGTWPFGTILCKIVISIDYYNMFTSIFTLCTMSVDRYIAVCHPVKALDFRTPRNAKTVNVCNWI
Kappa-type opioid receptor, sequence (P41144 whole entry): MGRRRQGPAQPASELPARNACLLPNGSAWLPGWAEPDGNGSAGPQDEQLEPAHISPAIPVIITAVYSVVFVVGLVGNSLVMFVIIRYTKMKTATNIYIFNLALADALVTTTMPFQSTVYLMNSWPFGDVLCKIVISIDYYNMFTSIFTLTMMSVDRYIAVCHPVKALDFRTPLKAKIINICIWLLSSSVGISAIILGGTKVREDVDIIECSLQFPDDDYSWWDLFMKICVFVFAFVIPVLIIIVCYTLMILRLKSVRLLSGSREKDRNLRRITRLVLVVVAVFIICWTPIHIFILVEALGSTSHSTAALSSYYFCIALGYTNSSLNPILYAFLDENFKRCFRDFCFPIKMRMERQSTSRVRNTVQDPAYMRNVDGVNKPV

For `CO[C@]12CC[C@@]3(C[C@@H]1[C@](C)(O)C(C)(C)C)[C@H]1Cc4ccc(O)c5c4[C@@]3(CCN1CC1CC1)[C@H]2O5` [BUPRENORPHINE], the EC50 in assay [1] and in assay [2] was 21 nM in each case.
For the compound `COC(=O)/C=C/C(=O)N[C@@]12CCC(=O)[C@@H]3Oc4c(O)ccc5c4[C@@]31CCN(CC1CC1)[C@@H]2C5`, the outcome in assay [3] and in assay [4] was inactive.
As to `CO[C@@]12CC[C@@]3(C[C@@H]1[C@](C)(O)C(C)(C)C)[C@H]1Cc4ccc(O)c5c4[C@@]3(CCN1CC1CC1)[C@H]2O5` [BUPRENORPHINE], it took 21 nM to reach a half-maximal effect in assay [5] (EC50). In assay [6], the Ki (in general, the dissociation constant of the complex between target and ligand, obtained from inhibition or displacement) amounted to 1.6 nM.
As to `CN1CC[C@]23c4c5ccc(O)c4O[C@H]2[C@@H](O)C=C[C@H]3[C@H]1C5` [MORPHINE], the Activity in assay [7] is reported as 100%.

These data come from ChEMBL document CHEMBL2176977 (J Med Chem, 2012).
